Results reported in US4455419A, “2'-Modified kanamycins and production thereof” (Zaidan Hojin Biseibutsu Kagaku Kenkyu Kai, priority 1981, dated 1984).
≈ marks a conversion by molar mass, not a printed value. Read-outs that look alike come from different tables or passages of the source.

Legend:
Assay in all cases: Minimum inhibitory concentration, standard serial dilution method
Assay type in all cases: cell-based
[1] = system: Salmonela typhimlium LT-2; conditions: 24 h, read-out: Minimum Inhibitory Concentrations
Source text: (§1) For comparison purpose, the minimum inhibitory concentrations (mcg/ml) of the parent compound, kanamycin A are also shown in Table II.

[2] = system: Serratia marcescens No. 1; conditions: read-out: Minimum Inhibitory Concentrations
Source text: as §1

[3] = system: Pseudomonas aeruginosa IAM-1007; conditions: read-out: Minimum Inhibitory Concentrations
Source text: as §1

[4] = system: Staphylococcus epidermidis 109; conditions: read-out: Minimum Inhibitory Concentrations
Source text: as §1

Providencia morgani Kono = conditions: read-out: Minimum Inhibitory Concentrations
Source text: as §1

[5] = system: Klebsiella pneumoniae PCI-602; conditions: read-out: Minimum Inhibitory Concentrations
Source text: as §1

[6] = system: Pseudomonas aeruginosa E-2 IAM-1007; conditions: read-out: Minimum Inhibitory Concentrations
Source text: as §1

[7] = system: Staphylococcus aureus Rosenbach FDA 209-OJC-1; conditions: read-out: Minimum Inhibitory Concentrations
Source text: as §1

[8] = system: Escherichia coli JR66/W677 (A-20683); conditions: read-out: Minimum Inhibitory Concentrations
Source text: as §1

Escherichia coli No. 29 = conditions: read-out: Minimum Inhibitory Concentrations
Source text: as §1

[9] = Serratia marcescens, NO.1, 24 h
[10] = Pseudomonas aeruginosa, IAM1007, 24 h
[11] = Staphylococcus epidermidis, 109, 24 h
[12] = Klebsiella pneumoniae, PCI602, 24 h
[13] = Staphylococcus aureus, FDA209, 24 h
[14] = Escherichia coli JR66/W677 (A-20683), nutrient agar, 37° C., 24 hours
[15] = Escherichia coli No. 29, nutrient agar, 37° C., 24 hours

Row | SMILES | MIC [1] [µg/mL] | MIC [2, 9] [µg/mL] | MIC [3, 10] [µg/mL] | MIC [4, 11] [µg/mL] | MIC (Providencia morgani Kono; Providencia, 24 h) [µg/mL] | MIC [5, 12] [µg/mL] | MIC [6, 10] [µg/mL] | MIC [7, 13] [µg/mL] | MIC ([8]; Escherichia coli, 24 h) [µg/mL] | MIC (Escherichia coli No. 29; Escherichia coli, NO.29, 24 h) [µg/mL] | MIC [8, 14] [µg/mL] | MIC ([2]; Serratia marcescens No. 1, nutrient agar, 37° C., 24 hours) [µg/mL] | MIC ([3]; IAM1007, Pseudomonas aeruginosa IAM-1007, nutrient agar, 37° C., 24 hours) [µg/mL] | MIC ([4]; Staphylococcus epidermidis 109, nutrient agar, 37° C., 24 hours) [µg/mL] | MIC (Providencia morgani Kono; Providencia morgani Kono, nutrient agar, 37° C., 24 hours) [µg/mL] | MIC ([5]; PCI602, Klebsiella pneumoniae PCI-602, nutrient agar, 37° C., 24 hours) [µg/mL] | MIC ([6]; IAM1007, Pseudomonas aeruginosa E-2 IAM-1007, nutrient agar, 37° C., 24 hours) [µg/mL] | MIC ([7]; FDA209, Staphylococcus aureus Rosenbach FDA 209-OJC-1, nutrient agar, 37° C., 24 hours) [µg/mL] | MIC (Escherichia coli No. 29; [15]) [µg/mL]
1 | NC[C@H]1O[C@H](O[C@H]2[C@H](O)[C@@H](O[C@H]3O[C@H](CO)[C@@H](O)[C@H](N)[C@H]3O)[C@H](N)C[C@@H]2N)[C@@H](N)[C@@H](O)[C@@H]1O [2'-Epikanamycin B, 2'-epikanamycin B] | 50 (≈ 103 µM) | 100 (≈ 207 µM) | > 100 | 50 (≈ 103 µM) | 50 (≈ 103 µM) | 50 (≈ 103 µM) | > 100 | 1.56 (≈ 3.23 µM) | > 100 | 50 (≈ 103 µM) | – | – | – | – | – | – | – | – | –
2 | NC[C@H]1O[C@H](O[C@H]2[C@H](O)[C@@H](O[C@H]3O[C@H](CO)[C@@H](O)[C@H](N)[C@H]3O)[C@H](N)C[C@@H]2N)[C@@H](O)[C@@H](O)[C@@H]1O [2'-Epikanamycin A, 2'-epikanamycin A] | 6.25 (≈ 12.9 µM) | 12.5 (≈ 25.8 µM) | 50 (≈ 103 µM) | 25 (≈ 51.6 µM) | 6.25 (≈ 12.9 µM) | 6.25 (≈ 12.9 µM) | > 100 | 0.39 (≈ 0.805 µM) | – | 6.25 (≈ 12.9 µM) | > 100 | – | – | – | – | – | – | – | –
3 | NC[C@H]1O[C@H](O[C@H]2[C@H](O)[C@@H](O[C@H]3O[C@H](CO)[C@@H](O)[C@H](N)[C@H]3O)[C@H](N)C[C@@H]2N)C[C@@H](O)[C@@H]1O [2'-Deoxykanamycin A, 2'-deoxykanamycin A] | 0.78 (≈ 1.66 µM) | – | – | – | – | – | – | – | – | – | 50 (≈ 107 µM) | 0.78 (≈ 1.66 µM) | 1.56 (≈ 3.33 µM) | 0.2 (≈ 0.427 µM) | 0.78 (≈ 1.66 µM) | 0.78 (≈ 1.66 µM) | 6.25 (≈ 13.3 µM) | 0.05 (≈ 0.107 µM) | 0.39 (≈ 0.832 µM)
4 | NC[C@H]1O[C@H](O[C@H]2[C@H](O)[C@@H](O[C@H]3O[C@H](CO)[C@@H](O)[C@H](N)[C@H]3O)[C@H](N)C[C@@H]2N)[C@H](O)[C@@H](O)[C@@H]1O [Kanamycin A, kanamycin A, reference compound] | 1.56 (≈ 3.22 µM) | 3.13 (≈ 6.46 µM) | 12.5 (≈ 25.8 µM) | 3.13 (≈ 6.46 µM) | 3.13 (≈ 6.46 µM) | 1.56 (≈ 3.22 µM) | 50 (≈ 103 µM) | 0.1 (≈ 0.206 µM) | – | – | > 100 | – | – | – | – | – | – | – | 0.78 (≈ 1.61 µM)
